# Measurements published in ChEMBL document CHEMBL1201862, “PubChem BioAssay data set” (2004).
# The source made the active and inactive calls.
# Assays:
# Chaperone protein dnaK = Chaperone protein dnaK (Escherichia coli, UniProt C3TRK2); test: E. coli DnaK binders, calorimetric Kd – biophysical, isothermal titration calorimetry, beta-domain, full-length DnaK, orthogonal assay for DnaK modulator project, SAR follow-up (AID 1495)
# [1] = molecular target: Lysosomal acid glucosylceramidase (Homo sapiens, UniProt P04062); test: Dose response cell-based high throughput screening assay to identify enhancers of beta-glucosidase activity. [Related pubchem assays: 784 ]; type: functional
# [2] = molecular target: 5-hydroxytryptamine receptor 1A (Homo sapiens, UniProt P08908); type: functional
# [3] = molecular target: T1, Dual specificity protein phosphatase 6 (Rattus norvegicus, UniProt Q64346)
# T1 sequence (Q64346 whole entry): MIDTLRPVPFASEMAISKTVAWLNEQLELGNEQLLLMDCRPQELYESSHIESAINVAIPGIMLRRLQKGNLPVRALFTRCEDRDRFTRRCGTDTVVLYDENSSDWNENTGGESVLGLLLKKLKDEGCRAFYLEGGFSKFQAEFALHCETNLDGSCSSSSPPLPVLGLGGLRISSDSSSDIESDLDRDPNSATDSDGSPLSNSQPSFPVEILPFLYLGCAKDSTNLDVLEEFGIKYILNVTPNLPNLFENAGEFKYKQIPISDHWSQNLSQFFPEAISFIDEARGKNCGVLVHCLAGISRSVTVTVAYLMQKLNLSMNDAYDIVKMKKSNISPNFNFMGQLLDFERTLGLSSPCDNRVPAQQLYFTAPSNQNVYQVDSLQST
# [4] = molecular target: Glyceraldehyde-3-phosphate dehydrogenase (Homo sapiens, UniProt P04406)
# [5] = molecular target: Heat shock cognate 71 kDa protein (Homo sapiens, UniProt P11142); test: In Vitro Hsc70 Dose Response Fluorescence Polarization Assay. [Related pubchem assays: 1072 ]
# [6] = molecular target: Heat shock 70 kDa protein 1A (Homo sapiens, UniProt P0DMV8); test: inhibition of Hsp70 binding activity – biochemical, fluorescence polarization, SAR follow-up (AID 1072)
# [7] = molecular target: T1, Dual specificity protein phosphatase 6; type: functional
# [8] = molecular target: T2, Tyrosine-protein phosphatase non-receptor type 7 (Homo sapiens, UniProt P35236); type: functional
# T2 sequence (P35236 whole entry): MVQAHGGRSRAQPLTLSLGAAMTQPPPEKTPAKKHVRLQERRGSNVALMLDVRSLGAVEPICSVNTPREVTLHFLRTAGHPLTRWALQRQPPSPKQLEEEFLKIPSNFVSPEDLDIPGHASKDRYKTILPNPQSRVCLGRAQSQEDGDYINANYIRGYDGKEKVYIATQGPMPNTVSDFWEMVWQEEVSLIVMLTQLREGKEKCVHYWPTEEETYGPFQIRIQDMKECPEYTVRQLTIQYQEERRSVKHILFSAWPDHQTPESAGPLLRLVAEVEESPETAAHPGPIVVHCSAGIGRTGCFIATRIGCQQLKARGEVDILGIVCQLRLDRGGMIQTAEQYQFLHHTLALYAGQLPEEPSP
# Vibrio harveyi [9] = test: LuxS/LuxPQ-dependent luminescence inhibition, V. harveyi – dry powder, set 2, dose response (AID 493072); type: functional, organism-based
# Vibrio harveyi [10] = test: Quorum Sensing, LuxS, LuxPQ Measured in Microorganism System Using Plate Reader - 2035-01_Inhibitor_DoseNoFile_DryPowder_Activity. [Related pubchem assays (depositor defined):AID2106]; type: functional, organism-based
# [11] = molecular target: T3, Dual specificity protein phosphatase 3 (Homo sapiens, UniProt P51452); test: inhibition constants for human DUSP3 – biochemical, colorimetric, SAR follow-up (AID 2004)
# Protein RecA = molecular target: T4, Protein RecA (Mycobacterium tuberculosis, UniProt P9WHJ3); test: Fluorescence Cell-Free Homogeneous Dose Retest to Identify Inhibitors of RecA-Intein Splicing Activity. [Related pubchem assays (depositor defined):AID2097, AID2223, AID489010, AID492950]; type: functional
# T4 sequence (P9WHJ3 whole entry): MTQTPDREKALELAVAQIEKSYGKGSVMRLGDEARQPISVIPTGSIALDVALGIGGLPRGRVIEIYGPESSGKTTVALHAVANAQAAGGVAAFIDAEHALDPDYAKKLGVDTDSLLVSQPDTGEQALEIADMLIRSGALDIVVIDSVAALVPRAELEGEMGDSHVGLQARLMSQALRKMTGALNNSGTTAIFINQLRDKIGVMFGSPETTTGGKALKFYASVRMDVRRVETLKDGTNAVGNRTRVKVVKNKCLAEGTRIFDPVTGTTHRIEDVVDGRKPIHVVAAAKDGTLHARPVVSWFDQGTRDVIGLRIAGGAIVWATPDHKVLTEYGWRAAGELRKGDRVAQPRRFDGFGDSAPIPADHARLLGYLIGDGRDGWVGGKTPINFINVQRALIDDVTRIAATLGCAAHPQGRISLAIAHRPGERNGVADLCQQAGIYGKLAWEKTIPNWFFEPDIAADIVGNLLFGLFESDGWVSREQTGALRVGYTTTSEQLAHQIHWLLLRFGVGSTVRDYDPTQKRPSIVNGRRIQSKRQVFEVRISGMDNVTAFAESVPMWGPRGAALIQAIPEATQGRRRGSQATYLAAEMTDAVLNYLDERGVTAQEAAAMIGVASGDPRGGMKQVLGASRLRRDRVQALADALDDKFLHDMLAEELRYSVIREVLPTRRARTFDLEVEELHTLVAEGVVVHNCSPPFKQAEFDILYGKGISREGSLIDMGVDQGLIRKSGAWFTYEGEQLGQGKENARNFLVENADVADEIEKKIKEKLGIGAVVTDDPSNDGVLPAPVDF
# [12] = molecular target: T5, Replicative DNA helicase DnaB (Mycobacterium tuberculosis, UniProt P9WMR3); test: DnaB intein splicing inhibitors, dose response, biochemical, cell-free fluorescence (AID 449749); type: functional
# T5 sequence (P9WMR3 whole entry): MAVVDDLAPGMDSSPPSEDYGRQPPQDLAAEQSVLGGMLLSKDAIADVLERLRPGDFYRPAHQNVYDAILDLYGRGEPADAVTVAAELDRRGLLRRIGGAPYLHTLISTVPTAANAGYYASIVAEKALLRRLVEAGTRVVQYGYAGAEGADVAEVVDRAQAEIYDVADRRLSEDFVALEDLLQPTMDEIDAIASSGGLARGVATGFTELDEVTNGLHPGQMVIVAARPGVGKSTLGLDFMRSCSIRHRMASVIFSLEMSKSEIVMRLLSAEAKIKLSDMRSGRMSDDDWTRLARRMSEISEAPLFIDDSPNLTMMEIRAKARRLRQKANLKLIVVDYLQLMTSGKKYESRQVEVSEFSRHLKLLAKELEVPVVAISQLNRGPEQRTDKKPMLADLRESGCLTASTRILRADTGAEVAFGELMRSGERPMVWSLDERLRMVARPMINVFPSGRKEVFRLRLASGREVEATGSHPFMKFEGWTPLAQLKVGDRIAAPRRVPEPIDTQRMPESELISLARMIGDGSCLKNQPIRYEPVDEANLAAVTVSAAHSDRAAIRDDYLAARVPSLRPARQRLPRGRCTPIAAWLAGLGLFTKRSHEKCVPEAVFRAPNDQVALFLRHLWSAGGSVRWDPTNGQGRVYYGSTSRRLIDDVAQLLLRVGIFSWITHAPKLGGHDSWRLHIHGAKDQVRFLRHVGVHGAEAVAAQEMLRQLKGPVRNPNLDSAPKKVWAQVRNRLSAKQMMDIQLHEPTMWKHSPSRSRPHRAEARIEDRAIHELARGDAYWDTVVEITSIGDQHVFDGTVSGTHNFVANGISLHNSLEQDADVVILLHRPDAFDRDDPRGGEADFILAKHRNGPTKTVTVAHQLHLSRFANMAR
# Hexokinase HKDC1 = Hexokinase HKDC1 (Homo sapiens, UniProt Q2TB90); test: inhibition of HKDC1 glucose phosphorylation – biochemical, W721R variant, dose response (AID 504729); type: functional
# [13] = molecular target: T6, Short transient receptor potential channel 4 (Mus musculus, UniProt Q9QUQ5); test: calcium entry via TRPC4 opening agents – cell-based, HEK293 TRPC4/mu-opioid, Fluo-4 calcium, dose response (AID 434937); type: functional
# T6 sequence (Q9QUQ5 whole entry): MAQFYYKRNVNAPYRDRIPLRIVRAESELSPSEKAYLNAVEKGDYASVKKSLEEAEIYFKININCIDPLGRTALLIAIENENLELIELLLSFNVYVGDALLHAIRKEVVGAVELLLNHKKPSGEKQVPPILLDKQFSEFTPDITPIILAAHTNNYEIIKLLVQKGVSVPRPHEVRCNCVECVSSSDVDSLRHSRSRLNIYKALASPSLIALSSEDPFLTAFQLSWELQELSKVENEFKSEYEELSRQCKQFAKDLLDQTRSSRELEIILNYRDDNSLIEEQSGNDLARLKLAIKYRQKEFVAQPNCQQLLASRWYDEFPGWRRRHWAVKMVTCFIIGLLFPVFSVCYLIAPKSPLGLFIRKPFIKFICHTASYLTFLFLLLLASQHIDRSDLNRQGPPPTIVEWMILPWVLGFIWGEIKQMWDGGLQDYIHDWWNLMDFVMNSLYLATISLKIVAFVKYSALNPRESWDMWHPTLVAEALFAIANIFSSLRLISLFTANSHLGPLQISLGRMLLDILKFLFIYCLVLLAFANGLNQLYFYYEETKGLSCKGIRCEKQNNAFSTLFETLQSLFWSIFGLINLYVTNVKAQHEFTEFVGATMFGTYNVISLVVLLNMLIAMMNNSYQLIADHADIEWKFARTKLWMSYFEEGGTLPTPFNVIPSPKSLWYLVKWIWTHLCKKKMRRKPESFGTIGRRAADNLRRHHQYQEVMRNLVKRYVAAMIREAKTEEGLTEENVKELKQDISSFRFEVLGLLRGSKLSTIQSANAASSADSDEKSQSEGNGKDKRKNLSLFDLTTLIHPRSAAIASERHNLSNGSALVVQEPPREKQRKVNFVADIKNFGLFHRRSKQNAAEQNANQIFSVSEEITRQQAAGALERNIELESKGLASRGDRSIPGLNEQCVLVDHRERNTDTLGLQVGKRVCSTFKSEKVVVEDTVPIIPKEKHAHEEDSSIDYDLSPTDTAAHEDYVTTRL
# [14] = molecular target: T3, Dual specificity protein phosphatase 3; test: MOA VHR1 Fluorescent secondary assay for identification of redox-state modulating compounds. [Related pubchem assays (depositor defined):AID1654, AID1661, AID1878, AID1957]
# [15] = molecular target: T2, Tyrosine-protein phosphatase non-receptor type 7; test: redox-active compounds inhibiting HePTP phosphatase – biochemical, fluorescence, mechanism study (AID 2068); type: functional
# [16] = molecular target: T3, Dual specificity protein phosphatase 3; test: SAR VHR1 Fluorescent Assay for In Vitro dose response studies. [Related pubchem assays (depositor defined):AID1654, AID1661, AID1878, AID1992, AID2004, AID2070, AID2085]; type: functional
# [17] = molecular target: T7, Alkaline phosphatase, tissue-nonspecific isozyme (Homo sapiens, UniProt P05186)
# T7 sequence (P05186 whole entry): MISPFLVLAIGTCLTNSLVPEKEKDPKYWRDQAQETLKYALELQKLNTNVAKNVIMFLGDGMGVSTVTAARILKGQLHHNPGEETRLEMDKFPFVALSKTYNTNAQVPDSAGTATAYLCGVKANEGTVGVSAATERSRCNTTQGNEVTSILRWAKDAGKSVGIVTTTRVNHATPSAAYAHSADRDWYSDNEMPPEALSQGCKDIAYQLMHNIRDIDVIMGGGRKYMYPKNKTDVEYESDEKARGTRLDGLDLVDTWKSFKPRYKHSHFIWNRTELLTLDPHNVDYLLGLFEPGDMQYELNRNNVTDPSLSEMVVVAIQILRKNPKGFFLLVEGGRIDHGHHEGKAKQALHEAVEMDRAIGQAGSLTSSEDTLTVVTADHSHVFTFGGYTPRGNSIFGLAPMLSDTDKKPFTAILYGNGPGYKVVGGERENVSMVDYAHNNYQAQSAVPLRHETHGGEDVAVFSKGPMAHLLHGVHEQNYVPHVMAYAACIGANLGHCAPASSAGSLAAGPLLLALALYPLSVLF
# T3 sequence (P51452 whole entry): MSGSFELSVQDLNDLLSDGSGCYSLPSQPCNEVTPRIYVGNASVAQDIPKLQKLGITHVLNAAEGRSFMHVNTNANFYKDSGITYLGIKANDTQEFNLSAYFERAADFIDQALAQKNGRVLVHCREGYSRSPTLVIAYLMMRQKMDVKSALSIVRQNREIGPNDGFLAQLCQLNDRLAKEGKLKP
# Chain of Glyceraldehyde-3-phosphate dehydrogenase (P04406 whole entry): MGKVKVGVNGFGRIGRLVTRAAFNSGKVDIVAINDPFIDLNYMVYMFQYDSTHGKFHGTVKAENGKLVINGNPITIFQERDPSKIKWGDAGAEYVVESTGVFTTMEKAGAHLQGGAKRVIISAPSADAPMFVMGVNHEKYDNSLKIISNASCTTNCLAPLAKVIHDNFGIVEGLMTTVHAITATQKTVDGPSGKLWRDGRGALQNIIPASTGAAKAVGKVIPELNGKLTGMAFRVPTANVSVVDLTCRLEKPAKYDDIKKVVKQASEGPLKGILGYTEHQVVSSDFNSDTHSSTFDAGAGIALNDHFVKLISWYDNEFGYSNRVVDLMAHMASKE
# Chain of Chaperone protein dnaK (C3TRK2 whole entry): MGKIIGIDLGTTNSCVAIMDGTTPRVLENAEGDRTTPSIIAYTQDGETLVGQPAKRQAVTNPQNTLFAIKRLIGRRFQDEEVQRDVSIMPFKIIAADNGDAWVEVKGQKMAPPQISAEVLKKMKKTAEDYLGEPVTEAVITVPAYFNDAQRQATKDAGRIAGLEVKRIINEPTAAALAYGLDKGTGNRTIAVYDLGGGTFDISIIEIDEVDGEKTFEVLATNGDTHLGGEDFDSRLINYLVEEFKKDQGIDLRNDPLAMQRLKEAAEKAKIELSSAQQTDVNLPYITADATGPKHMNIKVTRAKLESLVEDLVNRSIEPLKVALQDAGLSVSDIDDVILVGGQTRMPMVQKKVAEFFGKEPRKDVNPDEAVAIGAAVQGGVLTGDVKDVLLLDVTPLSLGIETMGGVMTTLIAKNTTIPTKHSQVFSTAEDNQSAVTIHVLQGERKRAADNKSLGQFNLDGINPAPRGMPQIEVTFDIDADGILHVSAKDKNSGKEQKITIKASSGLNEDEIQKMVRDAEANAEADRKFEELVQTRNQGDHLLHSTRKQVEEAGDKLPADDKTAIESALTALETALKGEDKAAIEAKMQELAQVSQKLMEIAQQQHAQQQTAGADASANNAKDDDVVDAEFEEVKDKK
# Chain of Heat shock cognate 71 kDa protein (P11142 whole entry): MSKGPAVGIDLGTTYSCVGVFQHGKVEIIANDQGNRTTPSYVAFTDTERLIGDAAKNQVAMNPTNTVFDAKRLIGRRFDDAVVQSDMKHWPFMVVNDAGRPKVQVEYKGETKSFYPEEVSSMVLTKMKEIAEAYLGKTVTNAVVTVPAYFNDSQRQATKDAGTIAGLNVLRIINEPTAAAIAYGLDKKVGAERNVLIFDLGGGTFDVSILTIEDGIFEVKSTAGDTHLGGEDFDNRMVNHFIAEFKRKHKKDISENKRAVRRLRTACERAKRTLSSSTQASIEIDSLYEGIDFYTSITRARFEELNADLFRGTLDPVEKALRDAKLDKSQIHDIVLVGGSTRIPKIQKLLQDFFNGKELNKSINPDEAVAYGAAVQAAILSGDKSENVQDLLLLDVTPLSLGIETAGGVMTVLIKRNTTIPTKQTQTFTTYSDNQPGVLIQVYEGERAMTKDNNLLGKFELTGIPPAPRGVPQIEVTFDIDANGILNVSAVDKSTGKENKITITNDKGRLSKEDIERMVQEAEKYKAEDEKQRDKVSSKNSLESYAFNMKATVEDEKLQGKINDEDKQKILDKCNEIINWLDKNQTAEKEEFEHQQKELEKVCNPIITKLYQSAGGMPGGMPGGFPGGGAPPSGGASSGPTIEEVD
# Chain of Lysosomal acid glucosylceramidase (P04062 whole entry): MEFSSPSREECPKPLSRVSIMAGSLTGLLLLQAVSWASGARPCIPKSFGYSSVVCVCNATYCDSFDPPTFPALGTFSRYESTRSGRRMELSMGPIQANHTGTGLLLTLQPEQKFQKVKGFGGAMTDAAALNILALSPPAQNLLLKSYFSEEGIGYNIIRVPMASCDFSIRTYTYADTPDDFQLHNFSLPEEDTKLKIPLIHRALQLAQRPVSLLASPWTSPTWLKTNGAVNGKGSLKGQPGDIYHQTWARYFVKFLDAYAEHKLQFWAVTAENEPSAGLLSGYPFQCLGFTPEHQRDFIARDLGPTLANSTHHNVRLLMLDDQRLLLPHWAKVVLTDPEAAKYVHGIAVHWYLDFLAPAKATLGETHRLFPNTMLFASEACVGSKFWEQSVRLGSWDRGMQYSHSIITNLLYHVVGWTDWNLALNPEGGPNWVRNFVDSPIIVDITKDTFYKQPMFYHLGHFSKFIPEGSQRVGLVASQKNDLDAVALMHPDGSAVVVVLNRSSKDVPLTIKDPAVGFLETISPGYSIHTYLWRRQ
# Chain of Heat shock 70 kDa protein 1A (P0DMV8 whole entry): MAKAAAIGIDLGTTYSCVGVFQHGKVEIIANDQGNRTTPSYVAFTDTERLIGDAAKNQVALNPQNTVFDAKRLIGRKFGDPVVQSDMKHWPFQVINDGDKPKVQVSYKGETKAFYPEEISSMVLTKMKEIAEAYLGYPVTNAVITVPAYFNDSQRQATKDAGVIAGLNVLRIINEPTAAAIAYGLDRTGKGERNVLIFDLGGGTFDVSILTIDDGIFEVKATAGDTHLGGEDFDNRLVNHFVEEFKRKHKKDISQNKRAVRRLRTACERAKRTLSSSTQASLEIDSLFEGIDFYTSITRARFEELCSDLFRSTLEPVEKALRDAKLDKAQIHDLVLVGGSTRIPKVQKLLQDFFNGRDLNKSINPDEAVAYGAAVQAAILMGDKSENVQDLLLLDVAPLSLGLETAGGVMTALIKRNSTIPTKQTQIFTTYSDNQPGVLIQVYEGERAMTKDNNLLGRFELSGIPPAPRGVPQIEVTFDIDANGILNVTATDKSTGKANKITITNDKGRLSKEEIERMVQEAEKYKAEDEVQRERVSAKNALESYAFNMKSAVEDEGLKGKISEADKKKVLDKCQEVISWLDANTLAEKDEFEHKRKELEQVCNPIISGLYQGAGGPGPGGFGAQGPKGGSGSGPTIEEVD
# Chain of 5-hydroxytryptamine receptor 1A (P08908 whole entry): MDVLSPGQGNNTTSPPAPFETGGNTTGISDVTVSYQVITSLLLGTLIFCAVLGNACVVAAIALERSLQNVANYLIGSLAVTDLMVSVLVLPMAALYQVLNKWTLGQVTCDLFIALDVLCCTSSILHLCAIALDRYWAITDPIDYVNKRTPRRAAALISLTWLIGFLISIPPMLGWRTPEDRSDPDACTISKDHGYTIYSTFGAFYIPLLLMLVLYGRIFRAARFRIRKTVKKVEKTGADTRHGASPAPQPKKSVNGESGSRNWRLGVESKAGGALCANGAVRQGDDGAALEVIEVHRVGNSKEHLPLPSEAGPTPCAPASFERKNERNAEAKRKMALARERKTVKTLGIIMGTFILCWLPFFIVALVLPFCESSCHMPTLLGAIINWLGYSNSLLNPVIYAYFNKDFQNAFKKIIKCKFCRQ
# Chain of Hexokinase HKDC1 (Q2TB90 whole entry): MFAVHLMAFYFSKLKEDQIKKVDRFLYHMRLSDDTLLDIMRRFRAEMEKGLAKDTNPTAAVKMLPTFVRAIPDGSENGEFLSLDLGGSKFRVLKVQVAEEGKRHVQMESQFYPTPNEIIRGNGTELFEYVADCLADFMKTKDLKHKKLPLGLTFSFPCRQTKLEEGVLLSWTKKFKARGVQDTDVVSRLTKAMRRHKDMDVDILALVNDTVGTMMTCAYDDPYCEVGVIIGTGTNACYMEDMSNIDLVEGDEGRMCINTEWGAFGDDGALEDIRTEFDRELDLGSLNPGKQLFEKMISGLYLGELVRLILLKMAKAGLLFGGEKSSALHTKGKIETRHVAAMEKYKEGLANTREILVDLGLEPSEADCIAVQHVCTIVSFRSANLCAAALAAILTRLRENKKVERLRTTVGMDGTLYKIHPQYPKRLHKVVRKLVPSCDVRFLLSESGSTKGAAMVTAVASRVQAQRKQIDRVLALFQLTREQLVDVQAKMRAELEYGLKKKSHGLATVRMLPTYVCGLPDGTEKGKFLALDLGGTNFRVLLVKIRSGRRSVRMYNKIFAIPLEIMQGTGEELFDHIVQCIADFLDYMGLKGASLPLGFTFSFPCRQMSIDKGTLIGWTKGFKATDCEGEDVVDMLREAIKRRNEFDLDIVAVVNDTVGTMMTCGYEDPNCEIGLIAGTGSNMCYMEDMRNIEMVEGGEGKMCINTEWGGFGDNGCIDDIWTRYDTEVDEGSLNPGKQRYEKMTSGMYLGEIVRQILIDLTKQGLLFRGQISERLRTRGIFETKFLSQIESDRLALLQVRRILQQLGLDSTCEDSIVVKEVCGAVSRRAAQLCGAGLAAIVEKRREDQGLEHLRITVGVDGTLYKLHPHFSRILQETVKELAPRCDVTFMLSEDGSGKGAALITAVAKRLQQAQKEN
structure (smiles),measurement,setting,value
O=C(NCc1ccc(Cl)c(Cl)c1)c1cccs1,Kd,Chaperone protein dnaK,7.3 µM (active)
CCc1ccc(NC(=O)Cn2c(SC)nc3ccccc32)cc1,EC50,[1],> 50 µM (not active)
same,EC50,[2],> 50 µM (not active)
O=C(O)C1Nc2c(I)cccc2C2C=CCC12 (stereo not given),IC50,[3],> 100 µM (inactive)
same,IC50,[4],47.8 µM (active)
same,IC50,[5],14.1 µM (active)
same,IC50,[6],3.13 µM (active)
same,IC50,[7],> 100 µM (inactive)
same,IC50,[8],71.4 µM (active)
C=Cn1c(C(=O)O)ccc1-c1ccc(CC)cc1,AC50,Vibrio harveyi [9],5.53 µM (active)
same,AC50,Vibrio harveyi [9]; Vibrio harveyi,4.66 µM (active)
same,AC50,Vibrio harveyi [10],2.73 µM (active)
COc1ccc(C2C3C(=O)N(c4ccccc4)C(=O)C3N3CCCN23)cc1 (stereo not given),Ki,[11],112 µM (inactive)
CC(OC(=O)c1cc(O)c2ccccc2c1O)C(=O)Nc1ccc(C(N)=O)cc1 (stereo not given),EC50,Protein RecA,4.51 µM (active)
same,AC50,[12],5.11 µM (active)
same,IC50,Hexokinase HKDC1,52.7 µM (inactive)
Cc1cc2nc3s/c(=C/c4ccc(-c5ccccc5C(=O)O)o4)c(=O)n3c2cc1C,IC50,[3],9 µM (active)
same,IC50,[4],> 100 µM (not active)
same,EC50,[13],5.96 µM (active)
same,IC50,[14],2.39 µM (active)
same,IC50,[7],26.4 µM (active)
same,IC50,[8],3.63 µM (active)
same,IC50,[15],2.65 µM (active)
same,IC50,[16],7.49 µM (active)
Cc1ccc(O)c(-c2cc(C(=O)NCc3ccccc3)[nH]n2)c1,EC50,[17],> 100 µM (not active)
